Data from patent US20250295646A1, “METHODS OF USE OF T-TYPE CALCIUM CHANNEL MODULATORS” (Praxis Precision Medicines, Inc., priority 2022, published 2025).

Tested on: adult patients with essential tremor
Assay: Example 16: video-reviewed TETRAS performance subscale and upper limb score; for TETRAS Performance Subscale Total Score by Video Review, Change from Baseline, Mean (SD): test concentration or dose not given here; for TETRAS Performance Subscale Total Score by Video Review, Change from Baseline, Median: test concentration or dose not given here; for TETRAS Performance Subscale Total Score by Video Review, Mean (SD): test concentration or dose not given here; for TETRAS Performance Subscale Total Score by Video Review, Median: test concentration or dose not given here
Format: in vivo, human
Source text: Video-reviewed TETRAS Analyses Video reviewed TETRAS assessments were generally consistent with those conducted at the clinic. Video reviewed TETRAS performance subscale total scores are summarized for Part A, the open-label titration phase of Part B, and the randomized withdrawal phase of Part B in Table 42, Table 43, and Table 44.
Video reviewed upper limb score values were generally consistent with those conducted at the clinic and are summarized for Part A, the open-label titration phase of Part B, and the randomized withdrawal phase of Part B in Table 45, Table 46, and Table 47, respectively.

[1] = Day 1, 6 hours Post - dose, Part A (N = 7)
[2] = Day 1, 6 hours Post - dose, Part B Open-Label Titration Phase (N = 17)
[3] = Day 1, 6 hours Post - dose, Part B, Formula (I) arm (N = 6)
[4] = Day 7, Part B Open-Label Titration Phase (N = 17)

CC(C)(C)NC(=O)CN1CCC(CNC(=O)c2cc(F)cc(Cl)c2)CC1 [compound of formula (I), N-((1-(2-(tert-butylamino)-2-oxoethyl)piperidin-4-yl)methyl)-3-chloro-5-fluorobenzamide]
TETRAS Performance Subscale Total Score by Video Review, Change from Baseline, Mean (SD) [1]: 0.29 (1.753)
TETRAS Performance Subscale Total Score by Video Review, Change from Baseline, Median [1]: 0.50
TETRAS Performance Subscale Total Score by Video Review, Mean (SD) [1]: 24.00 (5.148)
TETRAS Performance Subscale Total Score by Video Review, Median [1]: 23.00
TETRAS Performance Subscale Total Score by Video Review, Percentage Change from Baseline in Tremor Amplitude, Mean (SD) [1]: 1.98 (11.724) %
TETRAS Performance Subscale Total Score by Video Review, Percentage Change from Baseline in Tremor Amplitude, Median [1]: 3.53%
TETRAS Upper Limb Score by Video Review, Change from Baseline, Mean (SD) [1]: 0.21 (0.859)
TETRAS Upper Limb Score by Video Review, Change from Baseline, Median [1]: 0.00
TETRAS Upper Limb Score by Video Review, Mean (SD) [1]: 10.93 (2.440)
TETRAS Upper Limb Score by Video Review, Median [1]: 10.00
TETRAS Upper Limb Score by Video Review, Percentage Change from Baseline in Tremor Amplitude, Mean (SD) [1]: 3.57 (14.794) %
TETRAS Upper Limb Score by Video Review, Percentage Change from Baseline in Tremor Amplitude, Median [1]: 0.00%
TETRAS Performance Subscale Total Score by Video Review, Change from Baseline, Mean (SD) [2]: −0.74 (2.544)
TETRAS Performance Subscale Total Score by Video Review, Change from Baseline, Median [2]: −0.50
TETRAS Performance Subscale Total Score by Video Review, Mean (SD) [2]: 20.79 (6.715)
TETRAS Performance Subscale Total Score by Video Review, Median [2]: 20.50
TETRAS Performance Subscale Total Score by Video Review, Percentage Change from Baseline in Tremor Amplitude, Mean (SD) [2]: −4.49 (15.951) %
TETRAS Performance Subscale Total Score by Video Review, Percentage Change from Baseline in Tremor Amplitude, Median [2]: −3.53%
TETRAS Upper Limb Score by Video Review, Change from Baseline, Mean (SD) [2]: −0.29 (1.238)
TETRAS Upper Limb Score by Video Review, Change from Baseline, Median [2]: 0.00
TETRAS Upper Limb Score by Video Review, Mean (SD) [2]: 9.47 (2.809)
TETRAS Upper Limb Score by Video Review, Median [2]: 9.50
TETRAS Upper Limb Score by Video Review, Percentage Change from Baseline in Tremor Amplitude, Mean (SD) [2]: −4.23 (19.775) %
TETRAS Upper Limb Score by Video Review, Percentage Change from Baseline in Tremor Amplitude, Median [2]: 0.00%
TETRAS Performance Subscale Total Score by Video Review, Change from Baseline, Mean (SD) [3]: −0.42 (2.973)
TETRAS Performance Subscale Total Score by Video Review, Change from Baseline, Median [3]: −0.50
TETRAS Performance Subscale Total Score by Video Review, Mean (SD) [3]: 21.92 (4.398)
TETRAS Performance Subscale Total Score by Video Review, Median [3]: 21.75
TETRAS Performance Subscale Total Score by Video Review, Percentage Change from Baseline in Tremor Amplitude, Mean (SD) [3]: −2.29 (18.383) %
TETRAS Performance Subscale Total Score by Video Review, Percentage Change from Baseline in Tremor Amplitude, Median [3]: −3.47%
TETRAS Upper Limb Score by Video Review, Change from Baseline, Mean (SD) [3]: 0.33 (1.125)
TETRAS Upper Limb Score by Video Review, Change from Baseline, Median [3]: 0.75
TETRAS Upper Limb Score by Video Review, Mean (SD) [3]: 10.25 (1.666)
TETRAS Upper Limb Score by Video Review, Median [3]: 9.50
TETRAS Upper Limb Score by Video Review, Percentage Change from Baseline in Tremor Amplitude, Mean (SD) [3]: 5.82 (19.104) %
TETRAS Upper Limb Score by Video Review, Percentage Change from Baseline in Tremor Amplitude, Median [3]: 13.30%
TETRAS Performance Subscale Total Score by Video Review, Change from Baseline, Mean (SD) (Day 7, Part A (N = 7)): −1.25 (3.094)
TETRAS Performance Subscale Total Score by Video Review, Change from Baseline, Median (Day 7, Part A (N = 7)): −1.25
TETRAS Performance Subscale Total Score by Video Review, Mean (SD) (Day 7, Part A (N = 7)): 21.00 (2.449)
TETRAS Performance Subscale Total Score by Video Review, Median (Day 7, Part A (N = 7)): 21.75
TETRAS Performance Subscale Total Score by Video Review, Percentage Change from Baseline in Tremor Amplitude, Mean (SD) (Day 7, Part A (N = 7)): −7.45 (19.377) %
TETRAS Performance Subscale Total Score by Video Review, Percentage Change from Baseline in Tremor Amplitude, Median (Day 7, Part A (N = 7)): −8.23%
TETRAS Upper Limb Score by Video Review, Change from Baseline, Mean (SD) (Day 7, Part A (N = 7)): −0.25 (1.332)
TETRAS Upper Limb Score by Video Review, Change from Baseline, Median (Day 7, Part A (N = 7)): 0.00
TETRAS Upper Limb Score by Video Review, Mean (SD) (Day 7, Part A (N = 7)): 9.83 (0.816)
TETRAS Upper Limb Score by Video Review, Median (Day 7, Part A (N = 7)): 10.00
TETRAS Upper Limb Score by Video Review, Percentage Change from Baseline in Tremor Amplitude, Mean (SD) (Day 7, Part A (N = 7)): −3.79 (22.054) %
TETRAS Upper Limb Score by Video Review, Percentage Change from Baseline in Tremor Amplitude, Median (Day 7, Part A (N = 7)): 0.00%
TETRAS Performance Subscale Total Score by Video Review, Change from Baseline, Mean (SD) [4]: −2.28 (5.019)
TETRAS Performance Subscale Total Score by Video Review, Change from Baseline, Median [4]: −3.50
TETRAS Performance Subscale Total Score by Video Review, Mean (SD) [4]: 20.17 (6.595)
TETRAS Performance Subscale Total Score by Video Review, Median [4]: 20.50
